This passage reports EC50 results from BindingDB's records for doi:10.1021/acsmedchemlett.0c00008 (Taisho Pharmaceutical, 2020).

A value given as a limit tells only on which side of the number the result lay.

The nature of assay [1]: Inhibition of Human respiratory syncytial virus A2 Fusion protein expressed in Hep2 cells assessed as reduction in virus-induced cytopathic effect after 4 days by XTT assay. Background: Damage to the host cells serves as the signal in cytopathic effect assays.
Assay [2] in a line: Inhibition of Human respiratory syncytial virus Fusion protein D486N mutant expressed in Hep2 cells assessed as reduction in virus-induced cytopathic effect after 4 days by XTT assay.

For orientation: EC50 means the concentration giving half of the maximal effect. Consider `CC[C@@H](c1cc2nc(N3CC[C@H](N)C3)c(C)cn2n1)N(C)C(=O)c1cc(C)ccc1OC`, for which the EC50 in assay [1] is 3.8 nM; in assay [2], greater than 1000 nM.
Regarding `CC[C@H]1c2cc3nc(N4CC[C@H](N)C4)cc(n3n2)N(C)CCCOc2ccc(C)cc2C(=O)N1C`, the EC50 in assay [1] was 17 nM; in assay [2], greater than 1000 nM.
`CC[C@H]1c2cc3nc(N4CC[C@H](N)C4)cc(n3n2)N(C)CCCCOc2ccc(C)cc2C(=O)N1C`: the EC50 in assay [1] came out at 0.66 nM; in assay [2] it was 440 nM.
With `CC[C@H]1c2cc3nc(N4CC[C@H](N)C4)cc(n3n2)N(C)CCCCCOc2ccc(C)cc2C(=O)N1C`, the EC50 in assay [1] was 6.2 nM; in assay [2], greater than 1000 nM.
The like results for `CC[C@H]1c2cc3nc(N4CC[C@H](N)C4)cc(n3n2)N(C)CCCCCCOc2ccc(C)cc2C(=O)N1C` were, in that order, 54 nM and greater than 1000 nM.
On to `CC[C@H]1c2cc3nc(N4CC[C@H](N)C4)cc(n3n2)NCCCCOc2ccc(C)cc2C(=O)N1C`, for which the EC50 in assay [1] is 61 nM; in assay [2], greater than 1000 nM.
For the molecule `CC[C@H]1c2cc3nc(N4CC[C@H](N)C4)c(C)c(n3n2)NCCCCOc2ccc(C)cc2C(=O)N1C`, the values for the concentration for a half-maximal effect (EC50) in assay [1] and in assay [2] were 1.4 nM and greater than 1000 nM, respectively.
On to `CC[C@H]1c2cc3nc(N4CC[C@H](N)C4)c(C)c(n3n2)N(C)CCCCOc2ccc(C)cc2C(=O)N1C`, for which the EC50 in assay [1] was 8.1 nM; in assay [2], greater than 1000 nM.
The corresponding values for `Cc1ccc2c(c1)C(=O)N1CCCC[C@H]1c1cc3nc(N4CC[C@H](N)C4)cc(n3n1)N(C)CCCCO2` are 2 nM and 8.1 nM.
